pIC50: −log10 of the molar value.

Here are results for one compound from US20210198258A1, “INTEGRIN ANTAGONISTS” (Oxurion NV, priority 2018, published 2021).

The test system of test [1] is human umbilical vein endothelial cells (HUVECs). Briefly: ORIS Cell Migration Assay. The test is classed as cell-based. The note with it: HUVEC, fibronectin-coated plates, 24 h migration. Here is the method: Endothelial cell wound healing is mediated by endothelial cell migration and proliferation, both critical components of the angiogenesis process, and is routinely used as a surrogate model for in vitro angiogenic potential. The ORIS™ Cell Migration Assay was used with human umbilical vein endothelial cells (HUVECs).
HUVEC cells (SCCE-001, Cat no. 1000519, Merck Chemicals) were cultured in T175 flasks (Cat no 353112, falcon) in EndoGro Growth Medium (SCME-003, Merck Chemicals) and split when they reached 90-100% confluence.
For the assay, cells were used at passage 2 to 4 after thawing and at 80-90% confluency. At the beginning of the day, the fibronectin-coated Oris™ Cell Migration Assay Plates (Cat no #CMAFN.I01, AMS Biotechnology) were removed from refrigeration and placed at RT for 1 h. […]
Just prior to the end of the incubation, a 4 μg/mL calcein AM (Cat no 354217, Beckton Dickinson) solution was prepared in pre-warmed HBSS (Cat no 14025, Gibco). […] After incubation the fluorescence was read at 494 nm excitation and 517 nm emission wavelengths using the Flexstation and the SofiMax Pro 5.4.5 software (Molecular Devices). The fluorescence was read from the bottom of the plates with the lid on to keep them sterile. The masks were then removed and pictures were taken with the Axiovert fluorescence microscope (Zeiss) using reflected light, GFP and a 2.5× objective.

Test [2] concerns RPE-choroid sclera explants. The note with it: read-out: IC50 vessel outgrowth; murine choroid explants in fibrin gel, 3 to 4 days.
Source text: The assay is based on a murine microvascular angiogenesis explant model, which closely mimics in viva choroidal angiogenesis. […] The choroidal explant model or briefly EMCA model allows for rapid evaluation of new anti-angiogenic therapeutics, with the additional benefit of excluding the potential lack of exposure often encountered when testing small molecules in animal eyes. RPE-choroid sclera explants (hereinafter referred to as choroid explants) are embedded in a three-dimensional fibrinogen/fibrin gel. Addition of serum-containing medium induces extensive endothelial cell sprout outgrowth into the matrix after 3 to 4 days in culture.
All experiments were performed using 4 to 5-weeks old male C57BL/6J mice (Charles River Laboratories France), housed under standard laboratory conditions according to a normal day/night rhythm with ad libitum access to food and water. […]
After 3 to 4 days, bright field pictures were taken at 2.5× magnification with the Axio Vert.A1 inverted microscope (Zeiss) using ZEN lite 2012 microscope software (Zeiss). […] Further analysis was performed in Microsoft Excel, where the sprouting area of endothelial organotypic culture was quantified by subtracting the area of the tissue explant from the total area occupied by the sprouts.

As to `CC(C)[C@H]1C(=O)N[C@@H](CCCN=C(N)N)C(=O)NCC(=O)N[C@@H](CC(=O)O)C(=O)N[C@H](Cc2ccccc2)C(=O)N1C` [Cilengitide], the pIC50 – broadly, the negative decadic logarithm of the IC50, by convention in mol/L – is 4.00 in test [1] and roughly 3.52 in test [2].
